Results taken from patent US12060335B1, “2-(benzo[d]oxazol-2-yl)-N′-(3,5-dichlorobenzoyloxy)acetimidamide as an antimicrobial compound” (KING FAISAL UNIVERSITY, priority 2023, dated 2024).

Tests used:
[1] = tested on: Bacillus Cereus; assay: Agar plate disc-diffusion, antibacterial activity by measuring inhibition zone; assay type: cell-based; details: Gram positive, nutrient agar, 37° C., 48 hours
Protocol: (§1) The agar plate disc-diffusion method was applied. […] The discs were then placed onto the surface of agar plates (nutrient agar for bacteria and Sabouraud's dextrose agar for fungi) seeded with the test organism. Each plate contained 15 mL of the agar medium, previously seeded with 0.2 mL of the broth culture of each organism pregrown for 18 hours. The plates were incubated at 37° C. for 48 hours, and 72 hours for fungi. The inhibition zones was measured in mm. Discs impregnated with DMSO were used as a control, and its inhibition zone was subtracted from the tested compound actual inhibition zone.

[2] = tested on: Staphylococcus aureus; assay: as above; assay type: cell-based; details: Gram positive, nutrient agar, 37° C., 48 hours
Protocol: as §1

[3] = tested on: Escherichia coli; assay: as above; assay type: cell-based; details: Gram negative, nutrient agar, 37° C., 48 hours
Protocol: (§2) The agar plate disc-diffusion method was applied. Sterilized filter papers (6 mm in diameter) were wetted with 10 μL of a solution 2-(benzo[d]oxazol-2-yl)-N′-(3,5-dichlorobenzoyloxy)acetimidamide (3) to be tested, containing 10 mg/mL in DMSO, and the discs were allowed to air dry. The discs were then placed onto the surface of agar plates (nutrient agar for bacteria and Sabouraud's dextrose agar for fungi) seeded with the test organism. Each plate contained 15 mL of the agar medium, previously seeded with 0.2 mL of the broth culture of each organism pregrown for 18 hours. The plates were incubated at 37° C. for 48 hours, and 72 hours for fungi. The inhibition zones was measured in mm. Discs impregnated with DMSO were used as a control, and its inhibition zone was subtracted from the tested compound actual inhibition zone.

[4] = tested on: Pseudomonas aeruginosa; assay: as above; assay type: cell-based; details: Gram negative, nutrient agar, 37° C., 48 hours
Protocol: as §2

[5] = tested on: Aspergillus flavus; assay: Agar plate disc-diffusion, antifungal activity by measuring inhibition zone; assay type: cell-based; details: Sabouraud's dextrose agar, 72 hours
Protocol: as §1

[6] = tested on: Chrysosporium keratinophilum; assay: as above; assay type: cell-based; details: Sabouraud's dextrose agar, 72 hours
Protocol: as §1

[7] = tested on: different microbes; assay: Antimicrobial activity screen, overall statement; assay type: cell-based; details: against different microbes (bacteria and fungi of Tables 1 and 2)
Protocol: as §2

[8] = A = concentration of comp. = 10,000 μL
[9] = B = concentration of comp. = 30,000 μL
[10] = C = concentration of comp. = 50,000 μL

SMILES: N/C(Cc1nc2ccccc2o1)=N\OC(=O)c1cc(Cl)cc(Cl)c1 [Compound 3, 2-(benzo[d]oxazol-2-yl)-N′-(3,5-dichlorobenzoyloxy)acetimidamide]
- inhibition zone [1, 8]: 20 mm
- inhibition zone [1, 9]: 22 mm
- inhibition zone ([1]; C =): 30 mm
- inhibition zone [2, 8]: 19 mm
- inhibition zone [2, 9]: 21 mm
- inhibition zone [2, 10]: 29 mm
- inhibition zone [3, 8]: 26 mm
- inhibition zone [3, 9]: 34 mm
- inhibition zone [3, 10]: 46 mm
- inhibition zone [4, 8]: 25 mm
- inhibition zone [4, 9]: 27 mm
- inhibition zone ([4]; C =): 43 mm
- inhibition zone [5, 8]: 20 mm
- inhibition zone [5, 9]: 22 mm
- inhibition zone [5, 10]: 29 mm
- inhibition zone [6, 8]: 27 mm
- inhibition zone [6, 9]: 29 mm
- inhibition zone [6, 10]: 49 mm
- antimicrobial activities [7]: excellent antimicrobial activities
- melting point: 158 to 159 °C

SMILES: O=C(O)c1cn(C2CC2)c2cc(N3CCNCC3)c(F)cc2c1=O [Cip., ciprofloxacin, reference compound]
- inhibition zone [1, 8]: 29 mm
- inhibition zone [1, 9]: 30 mm
- inhibition zone ([1]; C =): 42 mm
- inhibition zone [2, 8]: 43 mm
- inhibition zone [2, 9]: 44 mm
- inhibition zone [2, 10]: 53 mm
- inhibition zone [3, 8]: 30 mm
- inhibition zone [3, 9]: 39 mm
- inhibition zone [3, 10]: 60 mm
- inhibition zone [4, 8]: 29 mm
- inhibition zone [4, 9]: 30 mm
- inhibition zone ([4]; C =): 53 mm
- inhibition zone [5, 8]: 29 mm
- inhibition zone [5, 9]: 30 mm
- inhibition zone [5, 10]: 42 mm
- inhibition zone [6, 8]: 29 mm
- inhibition zone [6, 9]: 30 mm
- inhibition zone [6, 10]: 53 mm
